# Data published in US6277847A, “Herbicidal isoindolinonyl-and 3,4-dihydroisoquinolonyl-substituted heterocycles” (FMC Corporation, priority 2000, dated 2001).
# Legend:
# Type in all cases: in vivo
# [1] = test system: field corn (Zea mays var. Pioneer 3732); assay: post-emergence herbicidal activity, corn; conditions: 1 Kg/Ha, about fourteen days, read-out: post-emergence herbicidal activity (% control) CRN
# In short: (§1)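 Percent control (0–100) was rated about fourteen days after spraying of emerged, germinated plants in flats with compound dissolved in water/acetone at 1 Kg/Ha.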
# [2] = test system: soybean (Glycine max -- var. Winchester); assay: pre-emergence herbicidal activity, soybean; conditions: 1 kg/Ha, about fourteen days, read-out: pre-emergence herbicidal activity (% control) SOY
# In short: (§2)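 Seeds sown in flats of soil mix were sprayed pre-emergence with test compound in water/acetone at 1 kg/Ha. Flats were held about fourteen days beside untreated controls, then phytotoxicity was scored as percent control (0 = no effect, 100 = complete control).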
# [3] = test system: common chickweed (Stellaria media); assay: post-emergence herbicidal activity, chickweed; conditions: 1 Kg/Ha, about fourteen days, read-out: post-emergence herbicidal activity (% control) STEME
# In short: as §1
# [4] = test system: green foxtail (Setaria viridis); assay: post-emergence herbicidal activity, green foxtail; conditions: 1 Kg/Ha, about fourteen days, read-out: post-emergence herbicidal activity (% control) SETVI
# In short: as §1
# [5] = test system: common cocklebur (Xanthium strumarium L.); assay: pre-emergence herbicidal activity, cocklebur; conditions: 1 kg/Ha, about fourteen days, read-out: pre-emergence herbicidal activity (% control) XANPE
# In short: as §2
# [6] = test system: velvetleaf (Abutilon theophrasti); assay: post-emergence herbicidal activity, velvetleaf; conditions: 1 Kg/Ha, about fourteen days, read-out: post-emergence herbicidal activity (% control) ABUTH
# In short: as §1
# [7] = test system: green foxtail (Setaria viridis); assay: pre-emergence herbicidal activity, green foxtail; conditions: 1 kg/Ha, about fourteen days, read-out: pre-emergence herbicidal activity (% control) SETVI
# In short: as §2
# [8] = test system: morningglory (Ipomea lacunosa or Ipomea hederacea); assay: pre-emergence herbicidal activity, morningglory; conditions: Ipomoea, 1 kg/Ha, about fourteen days, read-out: pre-emergence herbicidal activity (% control) IPOSS
# In short: as §2
# [9] = test system: Johnsongrass (Sorghum halepense); assay: post-emergence herbicidal activity, johnsongrass; conditions: 1 Kg/Ha, about fourteen days, read-out: post-emergence herbicidal activity (% control) SORHA
# In short: as §1
# [10] = test system: common chickweed (Stellaria media); assay: pre-emergence herbicidal activity, chickweed; conditions: 1 kg/Ha, about fourteen days, read-out: pre-emergence herbicidal activity (% control) STEME
# In short: as §2
# [11] = test system: morningglory (Ipomea lacunosa or Ipomea hederacea); assay: post-emergence herbicidal activity, morningglory; conditions: Ipomoea, 1 Kg/Ha, about fourteen days, read-out: post-emergence herbicidal activity (% control) IPOSS
# In short: as §1
# [12] = test system: Johnsongrass (Sorghum halepense); assay: pre-emergence herbicidal activity, johnsongrass; conditions: 1 kg/Ha, about fourteen days, read-out: pre-emergence herbicidal activity (% control) SORHA
# In short: as §2
# [13] = test system: velvetleaf (Abutilon theophrasti); assay: pre-emergence herbicidal activity, velvetleaf; conditions: 1 kg/Ha, about fourteen days, read-out: pre-emergence herbicidal activity (% control) ABUTH
# In short: as §2
# [14] = test system: wheat (Triticum aestivum var. Lew); assay: pre-emergence herbicidal activity, wheat; conditions: 1 kg/Ha, about fourteen days, read-out: pre-emergence herbicidal activity (% control) WHT
# In short: as §2
# [15] = test system: wheat (Triticum aestivum var. Lew); assay: post-emergence herbicidal activity, wheat; conditions: 1 Kg/Ha, about fourteen days, read-out: post-emergence herbicidal activity (% control) WHT
# In short: as §1
# [16] = test system: blackgrass (Aloepecurus myosuroides); assay: post-emergence herbicidal activity, blackgrass; conditions: Alopecurus myosuroides, 1 Kg/Ha, about fourteen days, read-out: post-emergence herbicidal activity (% control) ALOMY
# In short: as §1
# [17] = test system: common cocklebur (Xanthium strumarium L.); assay: post-emergence herbicidal activity, cocklebur; conditions: 1 Kg/Ha, about fourteen days, read-out: post-emergence herbicidal activity (% control) XANPE
# In short: as §1
# [18] = test system: soybean (Glycine max -- var. Winchester); assay: post-emergence herbicidal activity, soybean; conditions: 1 Kg/Ha, about fourteen days, read-out: post-emergence herbicidal activity (% control) SOY
# In short: as §1
# [19] = test system: field corn (Zea mays var. Pioneer 3732); assay: pre-emergence herbicidal activity, corn; conditions: 1 kg/Ha, about fourteen days, read-out: pre-emergence herbicidal activity (% control) CRN
# In short: as §2
# [20] = test system: blackgrass (Aloepecurus myosuroides); assay: pre-emergence herbicidal activity, blackgrass; conditions: Alopecurus myosuroides, 1 kg/Ha, about fourteen days, read-out: pre-emergence herbicidal activity (% control) ALOMY
# In short: as §2
structure (smiles),measurement,setting,value
Cn1c(C(F)(F)F)cc(=O)n(-c2c(Cl)cc(Cl)c3c2CN(C(C)(C)C)C3=O)c1=O [Compound 6],activity at 1000 g/ha,[1],100%
same,activity at 1000 g/ha,[2],100%
same,activity at 1000 g/ha,[3],100%
same,activity at 1000 g/ha,[4],100%
same,activity at 1000 g/ha,[5],100%
same,activity at 1000 g/ha,[6],100%
same,activity at 1000 g/ha,[7],100%
same,activity at 1000 g/ha,[8],100%
same,activity at 1000 g/ha,[9],100%
same,activity at 1000 g/ha,[10],100%
same,activity at 1000 g/ha,[11],95%
same,activity at 1000 g/ha,[12],100%
same,activity at 1000 g/ha,[13],100%
same,activity at 1000 g/ha,[14],100%
same,activity at 1000 g/ha,[15],80%
same,activity at 1000 g/ha,[16],100%
same,activity at 1000 g/ha,[17],100%
same,activity at 1000 g/ha,[18],90%
same,activity at 1000 g/ha,[19],100%
same,activity at 1000 g/ha,[20],100%
